Experimental data from patent publication US20060089411A1, “Treatment of Stargardt's disease and other lipofuscin disorders with combined retinaldehyde inhibitor and zeaxanthin” (priority 2004, published 2006).

How the values were obtained:
[1] = high dosage, people with risk factors such as smoking; cited from earlier work
[2] = system: rabbit or bovine RPE cells; conditions: added to RPE cell cultures; high oxygen concentrations or intense blue light; Sundelin 2001, Shaban 2002, Nilsson 2003; cited from earlier work
[3] = Laser-verteporfin photodynamic therapy in a patient with wet macular degeneration who was taking zeaxanthin; format: in vivo, human; conditions: one patient, zeaxanthin 20 milligrams per day for several months before treatment
Text: Additional insights arose from a fortuitous event involving an elderly acquaintance of the Applicant, who was taking zeaxanthin and who decided to have a treatment known as “photodynamic therapy”, which uses a laser to convert a drug called verteporfin into a toxin that will kill and seal newly-growing blood vessels in the retina. The patient's doctor, who is regarded as one of the world's foremost experts in treating macular degeneration, advised the patient to stop taking zeaxanthin before the laser treatment, because (in the physician's opinion) it likely would not help, and it might interfere with the laser treatment. That advice was entirely consistent with the packaging information that accompanies verteporfin, which states that carotenoids should be avoided before treatment, since they may interfere with the treatment.
That discovery and invention arose from an event involving a personal acquaintance of the Inventor. That person was suffering from the “wet” or “exudative” form of macular degeneration, which involves abnormal and aggressive blood vessel growth in and behind the macula. They decided to have a treatment known as “photodynamic therapy”, which uses a laser that is shone directly into the eye of a patient who has been anesthetized. […]

[4] = system: short chain dehydrogenase enzyme that converts 11-cis-retinol into 11-cis-retinal; conditions: Radu et al 2003; cited from earlier work
RPE65 = conditions: Gollapalli et al 2004; cited from earlier work
Sequence of RPE65 (Q16518 whole entry, species assumed): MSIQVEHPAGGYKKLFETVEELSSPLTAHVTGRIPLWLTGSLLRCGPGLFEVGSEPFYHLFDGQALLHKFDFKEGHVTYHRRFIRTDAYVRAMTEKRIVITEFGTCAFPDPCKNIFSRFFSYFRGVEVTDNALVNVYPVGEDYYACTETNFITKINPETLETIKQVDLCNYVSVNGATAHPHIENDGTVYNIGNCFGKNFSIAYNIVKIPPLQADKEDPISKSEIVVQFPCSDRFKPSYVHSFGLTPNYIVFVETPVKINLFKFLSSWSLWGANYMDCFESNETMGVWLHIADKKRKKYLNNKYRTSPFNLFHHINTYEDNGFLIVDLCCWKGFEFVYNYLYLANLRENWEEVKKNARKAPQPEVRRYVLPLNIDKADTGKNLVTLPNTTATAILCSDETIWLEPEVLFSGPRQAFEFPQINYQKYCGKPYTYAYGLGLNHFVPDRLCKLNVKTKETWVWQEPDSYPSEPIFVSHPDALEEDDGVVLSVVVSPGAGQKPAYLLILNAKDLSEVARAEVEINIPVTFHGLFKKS

[5] = people taking isotretinoin; decreased acuity under moderately dark conditions; cited from earlier work
ABCR −/− mice = conditions: mice with genetically engineered ABCR −/− gene defect; Radu et al 2003, US 2003/032,078; cited from earlier work

Molecule	cell toxicity [2]	formation of lipofuscin [2]	further results
CC1=C(/C=C/C(C)=C/C=C/C(C)=C/C=C/C=C(C)/C=C/C=C(C)/C=C/C2=C(C)CCCC2(C)C)C(C)(C)CCC1 [beta-carotene]	–	–	rates and risks of lung cancer [1]: actually increases the rates and risks of lung cancer
CC(C)=CCC/C(C)=C/C=C/C(C)=C/C=C/C(C)=C/C=C/C=C(C)/C=C/C=C(C)/C=C/C=C(\C)CCC=C(C)C [lycopene]	helped suppress cell toxicity	helped suppress cell toxicity and the formation of lipofuscin	–
CC1=C[C@H](O)CC(C)(C)[C@H]1/C=C/C(C)=C/C=C/C(C)=C/C=C/C=C(C)/C=C/C=C(C)/C=C/C1=C(C)C[C@@H](O)CC1(C)C [lutein]	helped suppress cell toxicity	helped suppress cell toxicity and the formation of lipofuscin	–
CC1=C(/C=C/C(C)=C/C=C/C(C)=C/C=C/C=C(C)/C=C/C=C(C)/C=C/C2=C(C)C[C@@H](O)CC2(C)C)C(C)(C)C[C@H](O)C1 [zeaxanthin, 3R,3′R-zeaxanthin]	helped suppress cell toxicity	helped suppress cell toxicity and the formation of lipofuscin	results of the laser-verteporfin treatment [3]: much better than anyone had expected
Vitamin E	helped suppress cell toxicity	helped suppress cell toxicity and the formation of lipofuscin	–
CC1=C(/C=C/C(C)=C/C=C/C(C)=C\C(=O)O)C(C)(C)CCC1 [isotretinoin, 13-cis-retinoic acid]	–	–	inhibition of short chain dehydrogenase [4]: inhibit at least two different enzymes involved in vision; inhibition of RPE65 (RPE65): inhibit at least two different enzymes involved in vision; vision side effect [5]: night blindness; accumulation of lipofuscin in the retinas (ABCR −/− mice): can help slow and reduce the accumulation of lipofuscin
O=C1O[C@H]([C@@H](O)CO)C(O)=C1O [Vitamin C]	–	helped suppress cell toxicity and the formation of lipofuscin	–
